Data: US20090298169A1, “Pancreatic and Liver Endoderm Cells and Tissue by Differentiation of Definitive Endoderm Cells Obtained from Human Embryonic Stems” (The University of Georgia Research Foundation, priority 2006, published 2009)

Legend:
[1] = tested on: BG01 cells; test: Flow cytometry of cell surface markers (CD9) on inhibitor treated BG01 cells; format: cell-based, human
Description: (§1) The inhibitor studies are performed as described in Example 2.
For flow cytometry, the BG01 cells are washed with 1×PBS and fixed in 2% paraformaldehyde/1×PBS for 10 minutes at room temperature. The cells are then washed in 1×PBS and approximately 2×10^5 cells are incubated with primary antibody diluted in 1% BSA/1×PBS. The primary antibodies used are anti-CD9 and anti-thrombomodulin (Cymbus Biotechnology), FITC conjugated mouse monoclonal antibodies at a 1:10 dilution. Cells are incubated at 4° C. for 30 minutes and then washed twice in 1×PBS. Where appropriate, cells are resuspended in a secondary antibody, anti-mouse Alexa-488 (Molecular Probes) diluted 1:1000 in 1% BSA/PBS, incubated at 4° C. for 30 minutes, and then washed twice in 1×PBS. Cells are resuspended in 1% BSA/1×PBS and surface expression is analyzed using a Beckman Coulter FC500.

[2] = tested on: BG01 cells; test: Morphology of BG01 hES cells cultured with PI3-kinase pathway inhibitors (standard microscopy); format: cell-based, human
Description: BG01 cells are passaged from feeders using the collagenase/trypsin method and are plated on matrigel coated dishes at 1×10^5 cells/35 mm dish in conditioned medium (CM; MEF conditioned medium plus 8 ng/ml bFGF). After approximately 24 hours, the media is replaced with fresh CM, CM with inhibitor (resuspended in EtOH), CM with EtOH, or with Spontaneous Differentiation medium (hES medium minus bFGF).
In alternative methods, the BG01 cells may be plated at different concentrations prior to contact with CM, CM with inhibitor and CM with EtOH Cells may be plated at the following concentrations: approximately 5×10^4 cells/35 mm dish, approximately 1×10^5 cells/35 mm dish, approximately 2×10^5 cells/35 mm dish, approximately 4×10^5 cells/35 mm dish and, approximately 6×10^5 cells/35 mm dish.
The inhibitor LY 294002 (Biomol) may be preferably used at the concentration range approximately 20-163 μM and the inhibitor Rapamycin (Calbiochem) is used at the concentration range approximately 1.5-30 nM. LY 294002 inhibits the PI3-kinase pathway by binding to the ATP docking site of p110. Rapamycin inhibits a subset of the PI3-kinase pathway by inhibiting mTOR (mammalian target of rapamycin).
Cells are grown in these conditions for approximately 72 hours with a medium change every 24 hours. Cells are harvested using the collagenase/trypsin method for flow cytometry and RT-PCR analysis and are scraped for biochemical analysis.
In undifferentiated cultures, individual cells are not easily discernable, being relatively small, irregular and without clearly apparent intercellular junctions at higher density. […] Individual cells are also more readily discernable at higher densities since discrete intercellular adhering junctions are evident between neighboring cells.

[3] = tested on: PI3-kinase signaling pathway; test: Western blot analysis of PI3-kinase signaling pathway activity (phosphorylated PKB/Akt, S6 kinase, S6 protein); format: cell-based, human; conditions: BG01 cells maintained in the presence of inhibitor
Description: Activity of the PI3-kinase signaling pathway may be assessed by Western blot analysis. Briefly, detergent extracts are prepared from untreated and treated cell cultures, separated by SDS-PAGE and blotted to nitrocellulose. Expression of active forms of the PI3-kinase intracellular targets PKB/Akt, S6 kinase and S6 protein are then determined by probing the nitrocellulose with appropriate antibodies to phosphorylated forms of each of these proteins. Generally, 30 μg of total protein are evaluated for each sample, primary incubations were carried out at a 1:1000 dilution of antibody, and binding in each case is detected by standard ECL based methodology.

[4] = tested on: BG01 cells; test: RT-PCR analysis of differentiation markers in inhibitor treated BG01 cells; format: cell-based, human
Description: as §1
Total RNA is isolated using TRIzol Reagent (GibcoBRL). RNA is run on a 1% agarose gel containing ethidium bromide and visualized using the AlphaImager™ 2200 Documentation and Analysis System to ensure RNA integrity. 10 μg of RNA is treated with DNase (Ambion), which is removed with DNase Inactivation Reagent (Ambion). cDNA is prepared with 500 ng of total RNA using the Superscript II Reverse transcriptase Kit (Invitrogen) using oligo(dT) primers. PCR reactions are carried out on 1 μl of cDNA. PCR products are run on a 2% agarose gel containing ethidium bromide and visualized using the Alphaamager™ 2200 Documentation and Analysis System. PCR primer sets used were GATA4, Mix1, Msx1, AFP, HNF4alpha, eHAND, Nanog, AFP and GAPDH.

[5] = tested on: human definitive endoderm cells (DE); test: Pancreatic endoderm formation from definitive endoderm with retinoic acid in FCS base media (Pdx1, Isl1 markers); format: cell-based
Description: BG01 hESCs were treated with LY 294002 (50 μM) for four days then switched to media containing DMEM/F12, 10% FCS, 50 ng/ml Fgf10 and 2 μM retinoic acid for up to four days. Untreated-untreated hESCs. Transcript levels were analyzed by QRT-PCR in triplicate and shown as the fold-increase over untreated samples (hESCs) after normalization to GAPDH reference transcript. Fold-induction of Pdx1 transcript levels are indicated.
BG01 hESCs were treated with LY 294002 (50 μM) for four days then switched to media consisting of DMEM/F12, 10% FCS, 50 ng/ml Fgf10 and 2 μM retinoic acid for up to four days. Untreated: untreated hESCs. Transcript levels were analyzed by QRT-PCR in triplicate and shown as the fold-increase over untreated samples (hESCs) after normalization to GAPDH reference transcript.
The present invention relates to pancreatic endoderm cells (PE) which are obtained from definitive endoderm cells by exposing the definitive endoderm cells to an effective concentration of retinoic acid (at least about 0.05-0.1 μg/ml, preferably about 0.1-25 μg/ml, more preferably about 0.1-2.0 μg/ml) in base media comprising an effective amount of fetal calf serum (FCS— preferably about 10% of the base media plus serum) for a period of at least about 2 days, preferably at least about 4 days, and more preferably about 4 days, followed by exposing the cells obtained from the first step to FCS (preferably, about 10%) in base media for at least one day, preferably at least about 2 days in the absence of retinoic acid. This method preferably results in at least about 35-50% and preferably at least about 70-80+% of the cells in the treated sample expressing the pancreatic endoderm markers, Pdx1 and Isl1.
Definitive endoderm cells (from treatment above) are washed 2× with PBS. 2-3 ml Trypsin/EDTA solution is added and cells are triturated and collected in a 15 ml conical tube. DMEM/F12 with 10% FBS is added to stop the trypsinization and the cells are centrifuged at 200×g for 5 minutes. […]

[6] = tested on: BG01 hESCs; test: AFP transcript induction (QRT-PCR) following treatment of definitive endoderm; format: cell-based, human; conditions: DE from LY 294002 (50 μM, four days), then DMEM/F12, 10% FCS up to six more days, presence or absence of Fgf10
Description: BG01 hESCs were differentiated into definitive endoderm for four days following the addition of LY 294002 (50 μM). Media was changed to DMEM/F12, 10% FCS and cells grown for up to six more days. Untreated: untreated hESCs. AFP transcript levels were analyzed by QRT-PCR in triplicate and shown as the fold-increase over untreated samples (hESCs) after normalization to GAPDH reference transcript.
The first example relates to the generation of cells expressing the embryonic liver marker alphafetoprotein (AFP) following treatment of definitive endoderm. BG01 hESCs were differentiated into definitive endoderm for four days following the addition of LY 294002 (50 μM). Media was changed to DMEM/F12, 10% FCS and cells grown for up to six more days. Untreated: untreated hESCs. AFP transcript levels were analyzed by QRT-PCR in triplicate and shown as the fold-increase over untreated samples (hESCs) after normalization to GAPDH reference transcript.

## O=c1cc(N2CCOCC2)oc2c(-c3ccccc3)cccc12 [LY 294002, 2-(4-Morpholinyl)-8-phenyl-4H-1-benzopyran-4-one]
[1]; after LY treatment
  cell surface CD markers expressed by undifferentiated hES cells (CD9, 27, 30, 46, 58 and 81): loss of a subset of cell surface CD markers
[1]; compared with spontaneous differentiation in adherent culture or embryoid bodies
  expression of CD9: may decrease more rapidly
[2]; BG01 cells after treatment, compared with undifferentiated cultures
  cell spreading and morphology after treatment: marked spreading and adopted obvious epitheloid cuboidal morphologies
[2]; cells plated at approximately 4×10^5 cells/35 mm dish or higher
  changes in morphology at high plating density: do not demonstrate the same morphological changes
[2]; cells plated lower than approximately 2×10^5 cells/35 mm dish
  changes in morphology at low plating density: display changes in morphology
[2]; cultured in the presence of inhibitor, matrigel, conditioned medium, approximately 72 hours
  morphological change of BG01 cells: undergo morphological change
[3]
  activity of Akt: inhibited
  activity of S6: inhibited
  activity of S6 kinase: inhibited
[4]
  markers indicative of early differentiation: may be detected

## CC1=C(/C=C/C(C)=C/C=C/C(C)=C/C(=O)O)C(C)(C)CCC1 [retinoic acid, all-trans retinoic acid]
[5]; definitive endoderm cells cultured with retinoic acid in basal cell media
  homogeneity of differentiated cells: greater homogeneity than spontaneously differentiated cells
[5]; following treatment
  Isl1 expression: marked increase
[5]; from definitive endoderm cells
  population of cells pure for the PE markers Pdx1 and Isl1: 70-80%

B1: Fgf10: fibroblast growth factor 10 (protein, UniProt O15520 38-208, looked up)
Fibroblast growth factor 10: QALGQDMVSPEATNSSSSSFSSPSSAGRHVRSYNHLQGDVRWRKLFSFTKYFLKIEKNGKVSGTKKENCPYSILEITSVEIGVVAVKAINSNYYLAMNKKGKLYGSKEFNNDCKLKERIEENGYNTYASFNWQHNGRQMYVALNGKGAPRRGQKTRRKNTSAHFLPMVVHS
[6]
  AFP induction: optimal AFP induction
